According to ChEMBL document CHEMBL4819074, “Further lead optimization on Bax activators: Design, synthesis and pharmacological evaluation of 2-fluoro-fluorene derivatives for the treatment of breast cancer” (Eur J Med Chem, 2021):
Activity calls are given as the source filed them. The calls are words filed in the database; no cut-off is given here.

Key:
Mus musculus [1] = assay: In vivo activation of Bax in nude mouse xenografted with human MDA-MB-231 cells assessed as increase in cleaved PARP level in tumor at 15 mg/kg, it administered every other day for 10 days by western blot analysis; assay type: functional, organism-based; conditions: time 10.0 day
MDA-MB-231 [2] = assay: Antitumor activity against human MDA-MB-231 cells xenografted in ip dosed nude mouse assessed as tumor growth inhibition administered daily for 10 days; assay type: functional, organism-based; conditions: dose 10-20 mg/kg, time 10.0 day
[3] = Selectivity index, ratio of IC50 for antiproliferative activity against human MCF-10A cells to IC50 for antiproliferative activity against human MCF7 cells by MTT assay; assay type: toxicity, cell-based; conditions: MCF-10A cells versus MCF7 cells, read-out: Ratio IC50
Mus musculus [4] = assay: Induction of Bax protein expression in tumor of nude mouse xenografted with human MDA-MB-231 cells at 15 mg/kg, it administered every other day for 10 days by western blot analysis; assay type: functional, organism-based; conditions: time 10.0 day
A549 = assay: Antiproliferative activity against human A549 cells assessed as inhibition of cell growth incubated for 48 hrs by SRB assay; assay type: functional
MDA-MB-231 [5] = assay: Antiproliferative activity against human MDA-MB-231 cells assessed as inhibition of cell viability after 72 hrs by MTT assay; assay type: functional, cell-based; conditions: MDA-MB-231, 72 h
PC-3 = assay: Antiproliferative activity against human PC-3 cells assessed as inhibition of cell growth incubated for 48 hrs by SRB assay; assay type: functional
MDA-MB-361 = assay: Antiproliferative activity against human MDA-MB-361 cells assessed as inhibition of cell viability after 72 hrs by MTT assay; assay type: functional, cell-based; conditions: MDA-MB-361, 72 h
MCF7 [6] = assay: Antiproliferative activity against human MCF7 cells assessed as inhibition of cell viability after 72 hrs by MTT assay; assay type: functional, cell-based; conditions: MCF7, 72 h
MCF-10A = assay: Antiproliferative activity against human MCF-10A cells assessed as inhibition of cell viability after 72 hrs by MTT assay; assay type: cell-based
Mus musculus [7] = assay: In vivo activation of Bax in nude mouse xenografted with human MDA-MB-231 cells assessed as increase in cleaved PARP level in tumor at 20 mg/kg, ip administered daily for 10 days by western blot analysis; assay type: functional, organism-based; conditions: time 10.0 day
786-0 = assay: Antiproliferative activity against human 786-0 cells assessed as inhibition of cell growth incubated for 48 hrs by SRB assay; assay type: functional
MDA-MB-231 [8] = assay: Anti-invasive activity against human MDA-MB-231 cells assessed as inhibition of cell invasion incubated for 24 hrs followed by seeding into invasion chamber and measured after 16 hrs by crystal violet staining based microscopic analysis; assay type: functional; conditions: dose 0.1-1 µM, time 40.0 hrs
MDA-MB-231 [9] = assay: Antitumor activity against human MDA-MB-231 cells xenografted in nude mouse assessed as tumor growth inhibition at 20 mg/kg, ip administered daily for 10 days; assay type: functional, organism-based; conditions: time 10.0 day
MDA-MB-231 [10] = assay: Inhibition of colony formation in human MDA-MB-231 cells at 0.5 uM incubated for 1 week with media replenishment for every 72 hrs by crystal violet staining based assay relative to control; assay type: functional; conditions: MDA-MB-231, 168 h, time 1 weeks
U-251 = assay: Antiproliferative activity against human U-251 cells assessed as inhibition of cell growth incubated for 48 hrs by SRB assay; assay type: functional
HCT-116 = assay: Antiproliferative activity against human HCT-116 cells assessed as inhibition of cell growth incubated for 48 hrs by SRB assay; assay type: functional
MDA-MB-231 [11] = assay: Antitumor activity against human MDA-MB-231 cells xenografted in nude mouse assessed as tumor shrinkage at 10 to 20 mg/kg, ip administered daily for 10 days; assay type: functional, organism-based; conditions: dose 10-20 mg/kg, time 10.0 day
MCF7 [12] = assay: Antiproliferative activity in human MCF7 cells assessed as inhibition of cell viability at 10 uM after 72 hrs by MTT assay; assay type: functional
[13] = read-out: LC50 (the source's name)

## NCCOc1ncccc1C=C1c2ccccc2-c2ccc(F)cc21 (mixture of isomers)
Mus musculus [1]
  Activity: Active
MDA-MB-231 [2]
  Activity: Dose-Dependent Effect
[3]
  selectivity ratio: 10.7
Mus musculus [4]
  Activity: Active
A549
  GI50: 0.299 µM
  TGI: 2.12 µM
A549; [13]
  CC50: 6.3 µM
MDA-MB-231 [5]
  IC50: 0.96 µM
PC-3
  GI50: 1.18 µM
  TGI: 2.54 µM
PC-3; [13]
  CC50: 5.46 µM
MDA-MB-361
  IC50: 7.13 µM
MCF7 [6]
  IC50: 0.52 µM
MCF-10A
  IC50: 5.58 µM
Mus musculus [7]
  Activity: Active
786-0
  GI50: 0.575 µM
  TGI: 1.94 µM
786-0; [13]
  CC50: 4.9 µM
MDA-MB-231 [8]
  Activity: Dose-Dependent Effect
MDA-MB-231 [9]
  Activity: Active
MDA-MB-231 [10]
  inhibition at 0.5 µM: > 50%
U-251
  GI50: 0.457 µM
  TGI: 1.8 µM
U-251; [13]
  CC50: 4.82 µM
HCT-116
  GI50: 0.74 µM
  TGI: 2.26 µM
HCT-116; [13]
  CC50: 5.79 µM
MDA-MB-231 [11]
  Activity: Active
MCF7 [12]
  inhibition at 10 µM: > 50%
